Experimental data published in ChEMBL document CHEMBL1122600, “Receptor binding sites of hypoglycemic sulfonylureas and related [(acylamino)alkyl]benzoic acids” (1984).

Tested on: Rattus norvegicus
Test: Effect of the compound (50 mg/kg, po) on rat blood sugar level which was given an oral glucose load (1 g/kg) 1 hr after the administration of compound
Type: functional

Structure (SMILES) | Change in rat blood sugar
COc1ccc(Cl)cc1C(=O)NCCc1ccc(C(C)O)cc1 (stereo not given) | -11%
COc1ccc(Cl)cc1C(=O)NCCc1ccccc1 | -7%
COc1ccc(Cl)cc1C(=O)NCCc1ccc(Cl)cc1 | 0%
COc1ccc(Cl)cc1C(=O)NCCc1ccc(O)cc1 | 2%
COc1ccc(Cl)cc1C(=O)NCCc1ccc(C(C)=O)cc1 | -11%
COc1ccc(Cl)cc1C(=O)NCCc1ccc(N)cc1 | 7%
COc1ccc(Cl)cc1C(=O)NCCCCCC(=O)O | 9%
COc1ccc(Cl)cc1C(=O)NCCc1ccc(OCC(=O)O)cc1 | -9%
CCc1ccc(CCNC(=O)c2cc(Cl)ccc2OC)cc1 | -4%
C=Cc1ccc(CCNC(=O)c2cc(Cl)ccc2OC)cc1 | -6%
COc1ccc(Cl)cc1C(=O)NCCc1ccc([N+](=O)[O-])cc1 | 2%
COc1ccc(Cl)cc1C(=O)NCCc1ccc(C(F)(F)F)cc1 | -3%
COc1ccc(Cl)cc1C(=O)NCCc1ccc(C)cc1 | -55%
COc1ccc(Cl)cc1C(=O)NCCc1ccc(S(=O)(=O)NC(=O)NC2CCCCC2)cc1 [GLYBURIDE] | -44%
COc1ccc(Cl)cc1C(=O)NCCc1ccc(C(=O)O)cc1 [MEGLITINIDE] | -63%
